In patent US20090311344A1, “Dosing Regimen” (priority 2008, published 2009):
Entries after “also recorded” stand apart in the source; their conditions may differ.

Experiments:
[1] = tested on: platelet count; experiment: Single dose study in healthy subjects: platelets, megakaryocyte ploidy, progenitor cells; format: in vivo, human
Excerpt: See, e.g., U.S. patent application Ser. No. 11/354,065, filed Feb. 14, 2006, the entire contents of which are incorporated herein by reference.

[2] = tested on: platelet count; experiment: platelet count in the rat after a single i.v. dose; format: in vivo; settings: single i.v. dose 30 to 300 μg/kg
Experimental: (§1) The TPO mimetic peptide compound has an estimated EC50 of approximately 5 pM (0.2 ng/mL) in a human TPO (huTPO) receptor assay in vitro and stimulates megakaryocyte lineage specific growth and differentiation in vivo.

[3] = tested on: chemotherapy-induced thrombocytopenia and anemia; experiment: murine models of chemotherapy-induced thrombocytopenia (CIT) and anemia; format: in vivo
Experimental: as §1

[4] = tested on: platelets, reticulocytes, hematocrit; experiment: CBC analysis and reticulocyte counts in HT-29 tumor-bearing mice (Groups 6-9); format: in vivo, athymic nude mice
Experimental: Five groups (n=10) of female athymic nude mice (Harlan) bearing established (˜100 mm^3) HT-29 human colon carcinomas on Day 1. Groups 6-9 (n=20) were included for blood sampling and received the same treatment as Groups 1-4, respectively. Treatment effects on the growth of tumors were evaluated by tumor growth delay (TGD), which is the difference between median time to endpoint (TTE) tumor size in a treatment group compared to a control group. […]
Group 1 mice (n=10) were untreated tumor growth controls. Group 2 mice (n=10) received 60 mg/kg carboplatin administered intraperitoneally (i.p.) on Days 1, 2, 12, and 13. Group 3 mice (n=10) received 0.2 mg/kg of the TPO mimetic peptide compound administered intravenously (i.v.) via tail vein on Days 2 and 13. Groups 4 and 5 received the combination of carboplatin (60 mg/kg i.p. on Days 1, 2, 12, and 13) and 0.2 mg/kg of the TPO mimetic peptide compound on Days 2, 13 and Days 2, 13, 23, respectively, administered intravenously (i.v.) one hour after carboplatin dosing. Groups 6-9 (n=20 each) were included for blood sampling and received the same treatments as Groups 1-4, respectively. For all groups, each dose of drug was given in a volume of 0.2 mL per 20 g of body weight (10 mL/kg), and was scaled to the body weight of each animal.
[…] Blood was collected into EDTA tubes, and complete blood counts (CBC) with differential were determined using a Cell-Dyn® 3700 System (Abbott Diagnostics) for automated hematology analyses. Reticulocyte values were determined. In addition, for Groups 1-5, five animals per group were euthanized at or just after endpoint by terminal cardiac puncture under CO2 anesthesia, and gross necropsies were performed. Blood samples were collected into EDTA tubes, and CBC with differential and reticulocyte values were performed as previously described. All other animals in Groups 1-5 were euthanized at endpoint without sampling.

[5] = mouse, in vivo
Excerpt: Animals were weighed daily for the first five days of the study and then twice weekly.
Animals were monitored for adverse treatment-related effects by frequent observation and body-weight (BW) measurements (data not shown).

[6] = tested on: hemoglobin; experiment: Multiple dose study in cancer subjects receiving platinum-based chemotherapy: hemoglobin; format: in vivo, human

With “Methoxypolyethyleneglycol20000-propionyl-L-Isoleucyl-L-Glutamyl-Glycyl-L-Prolyl-L-Threonyl-L-Leucyl-L-Arginyl-L-Glutaminyl-L-2-Naphthylalanyl-L-Leucyl-L-Alanyl-L-Alanyl-L-Arginyl-Sarcosyl-Ne-(methoxypolyethyleneglycol20000-propionyl-L-Isoleucyl-L-Glutamyl-Glycyl-L-Prolyl-L-Threonyl-L-Leucyl-L-Arginyl-L-Glutaminyl-L-2-Naphthylalanyl-L-Leucyl-L-Alanyl-L-Alanyl-L-Arginyl-Sarcosyl-)-Lysinamide [TPO mimetic peptide compound]” the mean platelet count ([1]; healthy male subjects, single i.v. administration) was “dose-dependently increased; also recorded: dose dependent, nonlinear increase”, the “elevated platelet counts, increase from baseline” value ([1]; healthy subjects, 3.0 μg/kg dose) was no less than 3 fold and the “mean number of CD62P+ platelets” value ([1]; healthy subjects, 2 highest doses) was “appeared to increase”. The mean megakaryocyte ploidy ([1]; healthy subjects, doses of 1.5 μg/kg and above) was “increased compared with placebo”, the “mean numbers of hematopoietic progenitor cells (BFU-E and peripheral CD34+ cells)” value ([1]; healthy subjects, highest dose) was “increased compared with placebo; also recorded: increased mean numbers of hematopoietic progenitor cells” and the platelet count [2] was “increased platelet count”. The “time at which platelet count returned to baseline” value [2] was 12 days, the “time at which the platelet count increase was maximal” value [2] was 6 days and the “effect of administration time relative to chemotherapy” value ([3]; 1 hour after chemotherapy compared with dosing after 24 or 96 hours) was “more effective”. The “doses at which the anti-anemic effect was observed” value ([3]; following carboplatin treatment) was no less than 0.03 mg/kg, the “chemotherapy-induced reduction in Hb, hematocrit and RBC count” value ([3]; mouse, in vivo) was “prevented” and the “fibrinogen-positive microangiopathic lesions in small blood vessels in the brain” value ([3]; mouse, in vivo) was “marked reduction”. For the same substance, the minimum effective dose ([3]; murine models of CIT, single dose, Day 12) was 0.1 mg/kg, the “myeloprotective effect in murine models of CIT” value ([3]; single dose, Day 12) was “reducing the severity and duration of CIT in a dose-dependent manner” and the “mean reticulocyte values compared to Group 6 controls” value ([4]; Group 8, all time points) was “slightly higher”. For the same substance, the “mean hematocrit (HCT) values compared to untreated mice (Group 6)” value ([4]; Groups 7-9) was “similar”, the “mean platelet counts compared to untreated Group 6 controls” value ([4]; Groups 7-9, regimens as Groups 2-4, Days 10, 13, 21, and 23) was “higher mean platelet counts at all four time points” and the “treatment-related (TR) deaths” value [5] was “no treatment-related (TR) deaths”. For the same substance, the “hemoglobin as compared with placebo” value ([6]; 2.25 and 3 μg/kg doses) was “trends for preservation of hemoglobin”, the “Change From Baseline in Hemoglobin, Diff of LS Mean (SE) vs Placebo” value (shortened to “Change From Baseline … (SE) vs Placebo”) ([6]; Day 42, 1.5 μg/kg) was 0.54 (0.63) and the “Change From Baseline … (SE) vs Placebo” value ([6]; Day 42, 3.0 μg/kg) was 1.00 (0.61). For the same substance, the “Change From Baseline in Hemoglobin, LS Mean (SE)” value ([6]; Day 42, 3.0 μg/kg) was −1.16 (0.47), the “Change From Baseline … (SE) vs Placebo” value ([6]; Day 63, 1.5 μg/kg) was −0.75 (0.90) and the “Change From Baseline in Hemoglobin, LS Mean (SE)” value ([6]; Day 63, 1.5 μg/kg) was −2.98 (0.70). The “Change From Baseline … (SE) vs Placebo” value ([6]; Day 63, 2.25 μg/kg) was 0.68 (0.83), the “Change From Baseline in Hemoglobin, LS Mean (SE)” value ([6]; Day 63, 2.25 μg/kg) was −1.55 (0.61) and the “Change From Baseline … (SE) vs Placebo” value ([6]; Day 63, 3.0 μg/kg) was 0.79 (0.83). The “Change From Baseline in Hemoglobin, LS Mean (SE)” value ([6]; Day 63, 3.0 μg/kg) was −1.44 (0.61), the “Change From Baseline … (SE) vs Placebo” value ([6]; Day 84, 1.5 μg/kg) was 0.05 (0.73) and the “Change From Baseline in Hemoglobin, LS Mean (SE)” value ([6]; Day 84, 1.5 μg/kg) was −1.88 (0.55). The “Change From Baseline … (SE) vs Placebo” value ([6]; Day 84, 2.25 μg/kg) was 0.37 (0.77), the “Change From Baseline in Hemoglobin, LS Mean (SE)” value ([6]; Day 84, 2.25 μg/kg) was −1.56 (0.61) and the “Change From Baseline … (SE) vs Placebo” value ([6]; Day 84, 3.0 μg/kg) was 1.57 (0.77). For the same substance, the “Change From Baseline in Hemoglobin, LS Mean (SE)” value ([6]; Day 84, 3.0 μg/kg) was −0.36 (0.61) and the “change in hemoglobin levels from baseline to the end of Cycle 2 (Day 42) and beyond” value ([6]; preliminary evaluation) was “dose-related trend for preservation of hemoglobin”.
